Reference: US20220218652A1, “METHODS OF TREATING CYTOKINE RELEASE SYNDROME” (The General Hospital Corporation, priority 2018, published 2022)

Assays:
BV2 microglial cells = experiment: Aβ42 uptake by ELISA and confocal microscopy in naive BV2 microglial cells; type: cell-based
Description: (§1) Naive BV2 microglial cells were treated with DMSO (control) or cromolyn (500 μM) for 16 hours. Afterwards, the cells were incubated with fluoresceraly-labeled A1342 (red) and DMSO or cromolyn for 2 hours. After incubation, the cells were labeled with a plasma membrane dye (PM, green) and imaged. BV2 microglial cells or BV2 cells stably expressing CD33 (BV2-CD33wT) were treated with DMSO or different concentrations of cromolyn for 16 hours. Then, cells were incubated with soluble untagged Aβ42 and DMSO or cromolyn for 2 hours and collected for ELBA analysis.

BV2-CD33wT cells = experiment: Aβ42 uptake by ELISA in BV2 cells stably expressing CD33; type: cell-based
Description: as §1

TgSOD1 mice [1] = experiment: Meso Scale Discovery multi-spot cytokine assay, spinal cord lysates of TgSOD1 mice; type: in vivo; details: TgSOD1-Cromolyn vs TgSOD1-Vehicle; cromolyn sodium 6.3 mg/kg i.p. once daily, 5 days per week from P60; p=0.0273
Description: (§2) Cromolyn. sodium was provide by AZ Therapies and dissolved in PBS. 100 mM solution was used for in vivo experiments. Dulbecco's PBS was used to dilute the solution for intraperitoneal injections for a final dose of 6.3 mg/kg.
(§3) 149 male and female age- and litter-matched transgenic TgSOD1^G93A and wild-type WtSOD1^G93A mice were used with the following breakdown: Females (19 WtSOD1-Vehicle, 17 WtSOD1-Cromolyn, 19 TgSOD1-Vehicle, and 17 TgSOD1-Cromolyn) and Males (18 WtSOD1-Vehicle, 21 WtSOD1-Cromolyn, 21 TgSOD1-Vehicle, 17 TgSOD1-Cromolyn). The mice received once daily injections of either vehicle or cromolyn sodium (6.3 mg/kg, […] i.p.) 5 days per week starting at P60 until euthanasia.
B6SJL-Tg (SOD1 G93A)1Gur/J transgenic male mice were obtained from Jackson Laboratory and bred with C57BL/6 female mice to obtain wild-type WtSOD1 and mutant transgenic TgSOD1^G93A-expressing mice. To determine mouse genotype, RNA extraction and complimentary DNA (cDNA) synthesis was performed from tail biopsies acquired at postnatal day 28-40 followed by quantitative real-time PCR (qRT-PCR) using primers for the mutant G93A SOD1 gene (GGGAAGCTGTTGTCCCA AG and […])(SEQ ID NO: 1 and SEQ ID NO: 2, respectively). Both age- and litter-matched WtSOD1 and TgSOD1 male. and female mice were used for all studies as described below. […]

TgSOD1 mice [2] = experiment: Meso Scale Discovery multi-spot cytokine assay, plasma of TgSOD1 mice; type: in vivo; details: 6.3 mg/kg i.p.
Description: as §2, §3
B6SJL-Tg (SOD1 G93A)1Gur/J transgenic male mice were obtained from Jackson Laboratory and bred with C57BL/6 female mice to obtain wild-type WtSOD1 and mutant transgenic TgSOD1^G93A-expressing mice. To determine mouse genotype, RNA extraction and complimentary DNA (cDNA) synthesis was performed from tail biopsies acquired at postnatal day 28-40 followed by quantitative real-time PCR (qRT-PCR) using primers for the mutant G93A SOD1 gene (GGGAAGCTGTTGTCCCA AG and […])(SEQ ID NO: 1 and SEQ ID NO: 2, respectively). Both age- and litter-matched WtSOD1 and TgSOD1 male. and female mice were used for all studies as described below.
Spinal cord frozen tissue was homogenized in ice-cold RIPA buffer (Thermo Fisher Scientific, #8990) supplemented with protease inhibitor cocktail (Thermo Fisher Scientific, #78430). Samples were centrifuged at 45,000 g for 30 minutes at 4° C. using an Optima TL ultracentrifuge and a TLA 120.2 rotor (Beckman Coulter). Expression levels of the cytokines were assessed in the supernatants derived from spinal cord tissue or in the plasma, using an electrocheiniluminescence-based multi-array method and MESO Quickplex SQ 120 system (MSD, Rockville, Md., USA). The 96-well V-FLEX Proinflammatory Mouse 1 Kit (Meso Scale Discovery, #K15048D) was used to measure simultaneously IL-1β, IL-2, IL-5, IL-6, IL-10, and TNFα, following the manufacturer's instructions. Briefly, samples were diluted in the calibrator and added to the plate coated with an array of cytokine capture antibodies. Samples were incubated. in the plate for 2 hours with shaking at room temperature, followed by washes with the wash buffer provided in the kit. The detection antibody solution was added to each well and the plate was incubated for 2 hours. The plate was washed with the wash buffer and the 2× Read Buffer T was added. The signal was immediately measured on a MESO QuickIlex SQ 120 instrument and was analyzed using the DISCOVERY WORKBENCH 4.0 software (Meso Scale Diagnostics, LLC., Rockville, Md., USA). Protein concentrations in the supernatants or the plasma samples were measured using the Pierce BCA protein assay kit (Thermo Scientific). Values in the graphs represent levels of cytokines normalized to the corresponding protein concentrations.
Data are presented as median values. Box plots are used for graphical representation of population data with the central line representing the median, the edges representing the interquartile ranges, and the whiskers representing 10-90th percentiles. Data are also represented as medians±interquartile ranges or percent values. Sample sizes are included in the figure legends. Comparisons for unrelated samples were performed using a two-way ANOVA followed by Tukey's or Sidak's multiple comparison's test or a one-way ANOVA test followed by Tukey's multiple comparison post-tests at a significance level (a) of 0.05. For p<0.05 and >0.00001, exact P values (two-tailed) are reported.
Additionally, levels of L-1β, IL-2, IL-5, IL-6, IL-10, and TNFα were assessed in the plasma of a subset of mice (Females: 13 WtSOD1-Vehicle, 15 WtSOD1-Cromolyn, 6 TgSOD1-Vehicle, and 6 TgSOD1-Cromolyn; and Males: 14 WtSOD1-Vehicle, 10 WtSOD1-Cromolyn, 6 TgSOD1-Vehicle, 3 TgSOD1-Cromolyn).

[3] = 16 hours pretreatment, then 2 hours with Aβ42, vs vehicle (DMSO), ELISA
[4] = different concentrations of cromolyn

SMILES: O=C(O)c1cc(=O)c2c(OCC(O)COc3cccc4oc(C(=O)O)cc(=O)c34)cccc2o1 [cromolyn, cromolyn sodium]
- Aβ42 uptake in naive BV2 microglial cells (BV2 microglial cells; [3]): increased Aβ42 uptake
- dose dependence of Aβ42 uptake modulation, naive BV2 cells (BV2 microglial cells; [4]): dose-dependent effect
- internalized Aβ42 in BV2-CD33wT cells (BV2-CD33wT cells; [3]): increased levels of internalized Aβ42
- dose dependence of Aβ42 uptake modulation, BV2-CD33wT cells (BV2-CD33wT cells; [4]): dose-dependent effect
- TNFα level in spinal cord (TgSOD1 mice [1]): significant decrease
- IL-10 level in plasma (TgSOD1 mice [2]; TgSOD1-Cromolyn vs TgSOD1-Vehicle, p=0.0095): significantly decreased
- IL-2 level in plasma (TgSOD1 mice [2]; TgSOD1-Cromolyn vs TgSOD1-Vehicle, p=0.0211): significantly decreased
- IL-6 level in plasma (TgSOD1 mice [2]; TgSOD1-Cromolyn vs TgSOD1-Vehicle, p=0.0273): significantly decreased
- TNFα level in plasma (TgSOD1 mice [2]; TgSOD1-Cromolyn vs TgSOD1-Vehicle, p=0.110): trend towards a decrease
- IL-1β level in plasma (TgSOD1 mice [2]; between groups): no statistically significant difference
- IL-5 level in plasma (TgSOD1 mice [2]; between groups): no statistically significant difference
